{
  "source": "patent US20190167761A1",
  "about": "“PHARMACEUTICAL COMPOSITION FOR PREVENTING OR TREATING STRESS-RELATED DISEASE, INCLUDING DISC1 PROTEIN OR GENE ENCODING THE SAME” (POSTECH ACADEMY-INDUSTRY FOUNDATION, priority 2017, published 2019)",
  "key": {"[1]": {"system": "ER-mitochondria Ca^2+ transfer", "assay": "Corticosterone-induced mitochondrial Ca2+ levels in cerebral cortical neurons", "assay_type": "cell-based, mouse", "details": "for corticosterone-induced increase in mitochondrial Ca2+ levels: preincubation with the agent", "method": "(§1) To verify the hypothesis, changes in ROS and mitochondrial Ca^2+ levels in cerebral cortical neurons were assessed after treatment with corticosterone (CORT), which is a glucocorticoid stress hormone."}, "[2]": {"system": "cerebral cortical neurons", "assay": "ER Ca2+ storage capacity / IP3 generation after corticosterone", "assay_type": "cell-based, mouse", "details": "corticosterone for 1 hour", "method": "To verify the hypothesis, changes in ROS and mitochondrial Ca^2+ levels in cerebral cortical neurons were assessed after treatment with corticosterone (CORT), which is a glucocorticoid stress hormone. […] To determine whether this glucocorticoid-dependent increase in mitochondrial Ca^2+ levels relies on the induction of oxidative stress, apocynin (APO), which is an antioxidant and a ROS scavenger, was used. […] In contrast, it was confirmed that, when neurons were treated with corticosterone for 1 hour, the capacity of the ER for Ca^2+ storage or IP3 generation was not changed."}, "[3]": {"system": "cerebral cortical neurons", "assay": "Corticosterone-induced ROS generation in cerebral cortical neurons", "assay_type": "cell-based, mouse", "method": "as §1"}, "[4]": {"system": "ER-mitochondria Ca^2+ transfer", "assay": "Oxidative stress (H2O2 / MSC)-induced mitochondrial Ca2+ levels in cerebral cortical neurons", "assay_type": "cell-based, mouse", "method": "At this time, to measure mitochondrial Ca^2+ levels at specific time points during incubation of neurons with H2O2, Rhod2/AM, which is a mitochondria-specific chemical Ca^2+ indicator, was used instead of Mito-GCaMP6 capable of causing variations due to different expression levels of Mito-GCaMP6 at multiple time points."}, "IP3R1 [5]": {"system": "IP3R1", "assay": "Competitive IP3 binding assay", "details": "proteins immunoprecipitated from HEK293FT cells; 3 nM [3H]-IP3, 4° C., 1 hour", "method": "Transfected HEK293FT cells were lysed in a NP40 buffer, and then the proteins were immunoprecipitated with antibodies. The immunoprecipitated proteins were incubated with 3 nM [^3H]-IP3 at 4° C. for 1 hour and the concentration of cold IP3 was increased in a Ca^2+-free CLM buffer. Meanwhile, brains were isolated from adult WT or DISC1 LI mice and lysed in a NP40 buffer by sonication, and then endogenous IP3R1 and the DISC1 protein were immunoprecipitated with specific antibodies, and then incubated with [^3H]-IP3 in the same manner as described above, and the concentration of cold IP3 was increased. Thereafter, the resulting mixture was filtered with a GF/B filter and washed three times with a CLM buffer, and then the filter was dried, and radioactivity was measured using a scintillation counter.\nIn IP3R1, the ligand-binding and modulatory domains are critical regions for ligand binding of IP3Rs, and thus the inventors of the present disclosure examined the influence of DISC1 on binding between IP3R1 and its ligand, i.e., IP3. For this, competitive IP3 binding analysis was performed using IP3R1, DISC1, or DISC1^Δ1-201, which was isolated from HEK293FT cells by immunoprecipitation with antibodies according to the methods of Examples 1 to 3."}, "IP3R1 [6]": {"system": "IP3R1", "assay": "Immunoprecipitation analysis of interaction between DISC1 and IP3R1", "assay_type": "binding", "text": "IP3R1 is known to be predominantly expressed in the brain and abundant in the MAM. Therefore, the MAM localization of DISC1 was confirmed through Example 2, and to examine the interaction between DISC1 and IP3R1, the inventors of the present disclosure performed immunoprecipitation analysis on the two proteins. […] In addition, as illustrated in the immunoblotting results of FIG. 2C, it was confirmed that the endogenous DISC1 protein and the IP3R1 protein were expressed together in whole lysates and the crude MAM fraction ((MAM+Mito), which was derived from the brains of adult mice."}, "[7]": {"system": "ER-mitochondria Ca^2+ transfer", "assay": "IP3-induced mitochondrial Ca2+ imaging (Mito-GCaMP6) in permeabilized cerebral cortical neurons", "assay_type": "cell-based, mouse", "method": "Neurons (DIV7-8) transfected with Mito-GCaMP6 along with each construct were permeabilized with digitonin and Ca^2+-free ionomycin at 37° C. for 2 minutes in a modified EGTA- and Ca^2+-free buffer, and then was exposed to IP3. To measure the effect of RiBFM on mitochondrial Ca^2+ responses, neurons were transfected with Mito GCaMP6, AKAP1-FKBP12, and FRB-SAC1 together with pFlag-cmv2 or Flag-DISC1 on DIV5-6, and neurons pre-incubated with rapamycin for 5 minutes were exposed to IP3 in the same manner as described above.\nBy considering the functional association between IP3R1 and DISC1 at the MAM, which was verified in the above example, the inventors of the present disclosure examined whether or not DISC1 was involved in regulating ER-mitochondria Ca^2+ transfer. For this, expression constructs for GCaMP6, which is a genetically encoded Ca^2+ indicator, were modified by combining the target sequences for mitochondria or the ER. Subsequently, it was confirmed that the organelle-specific GCaMP6 constructs were expressed in cerebral cortical neurons. In the case of ER Ca^2+ measurement, the results were verified using ER-GCaMP3, which has a relatively low affinity for Ca^2+. […]"}, "[8]": {"details": "treatment with corticosterone for 1 hour"}},
  "note": "“Also recorded” adds a separate entry of the source. Like-named read-outs stand apart in the source and are kept apart here.",
  "data": [
    {"molecule": "C[C@]12C[C@H](O)[C@H]3[C@@H](CCC4=CC(=O)CC[C@@]43C)[C@@H]1CC[C@@H]2C(=O)CO", "note": "[corticosterone]", "values": [
      {"measurement": "mitochondrial Ca2+ levels", "setting": "[1]; [8]", "value": "significant increases"},
      {"measurement": "capacity of the ER for Ca2+ storage or IP3 generation", "setting": "[2]", "value": "not changed"},
      {"measurement": "ROS levels", "setting": "[3]; [8]", "value": "significant increases"}
    ]},
    {"molecule": "OO", "note": "[H2O2, Hydrogen peroxide]", "values": [
      {"measurement": "mitochondrial Ca2+ levels during incubation with H2O2", "setting": "[4]; Rhod2/AM, specific time points", "value": "increased proportional to the incubation time"}
    ]},
    {"molecule": "NCCOB(c1ccccc1)c1ccccc1", "note": "[2-APB, 2-aminoethyl diphenylborinate]", "values": [
      {"measurement": "mitochondrial Ca2+ levels during incubation with H2O2", "setting": "[4]", "value": "these results were not shown"},
      {"measurement": "corticosterone-induced increase in mitochondrial Ca2+ levels", "setting": "[1]", "value": "not observed"}
    ]},
    {"molecule": "COc1cc(C(C)=O)ccc1O", "note": "[APO, apocynin]", "values": [
      {"measurement": "corticosterone-induced mitochondrial Ca2+ levels", "setting": "[1]; DISC1 shRNA vs CTL shRNA neurons, corticosterone 1 hour", "value": "significantly reduced"},
      {"measurement": "difference in mitochondrial Ca2+ accumulation between WT and DISC1 LI neurons", "setting": "[1]; corticosterone", "value": "significantly reduced"},
      {"measurement": "corticosterone-induced increase in mitochondrial Ca2+ levels", "setting": "[1]", "value": "significantly reduced"}
    ]},
    {"molecule": "DISC1: disrupted in schizophrenia 1 (DISC1) protein, amino acid sequence of SEQ ID NO: 1 or SEQ ID NO: 2 (protein, UniProt Q9NRI5 1-854, looked up) Disrupted in schizophrenia 1 …: MPGGGPQGAPAAAGGGGVSHRAGSRDCLPPAACFRRRRLARRPGYMRSSTGPGIGFLSPAVGTLFRFPGGVSGEESHHSESRARQCGLDSRGLLVRSPVSKSAAAPTVTSVRGTSAHFGIQLRGGTRLPDRLSWPCGPGSAGWQQEFAAMDSSETLDASWEAACSDGARRVRAAGSLPSAELSSNSCSPGCGPEVPPTPPGSHSAFTSSFSFIRLSLGSAGERGEAEGCPPSREAESHCQSPQEMGAKAASLDGPHEDPRCLSRPFSLLATRVSADLAQAARNSSRPERDMHSLPDMDPGSSSSLDPSLAGCGGDGSSGSGDAHSWDTLLRKWEPVLRDCLLRNRRQMEVISLRLKLQKLQEDAVENDDYDKAETLQQRLEDLEQEKISLHFQLPSRQPALSSFLGHLAAQVQAALRRGATQQASGDDTHTPLRMEPRLLEPTAQDSLHVSITRRDWLLQEKQQLQKEIEALQARMFVLEAKDQQLRREIEEQEQQLQWQGCDLTPLVGQLSLGQLQEVSKALQDTLASAGQIPFHAEPPETIRSLQERIKSLNLSLKEITTKVCMSEKFCSTLRKKVNDIETQLPALLEAKMHAISGNHFWTAKDLTEEIRSLTSEREGLEGLLSKLLVLSSRNVKKLGSVKEDYNRLRREVEHQETAYETSVKENTMKYMETLKNKLCSCKCPLLGKVWEADLEACRLLIQSLQLQEARGSLSVEDERQMDDLEGAAPPIPPRLHSEDKRKTPLKVLEEWKTHLIPSLHCAGGEQKEESYILSAELGEKCEDIGKKLLYLEDQLHTAIHSHDEDLIQSLRRELQMVKETLQAMILQLQPAKEAGEREAAASCMTAGVHEAQA", "values": [
      {"measurement": "binding ability of unlabeled IP3 relative to [3H]IP3 bound to IP3R1", "setting": "IP3R1 [5]", "value": "decreased"},
      {"measurement": "degree to which mitochondrial Ca2+ levels were increased", "setting": "[4]; overexpression, 1 hour after H2O2 incubation, compared to control", "value": "significantly reduced"},
      {"measurement": "IP3R1 domains that DISC1 interacted with", "setting": "IP3R1 [6]; expression constructs for functional domains of IP3R1", "value": "a ligand-binding domain (LBD) and modulatory domains (MD1, MD2, and MD3)"},
      {"measurement": "interaction with IP3R1 (GFP-IP3R1)", "setting": "IP3R1 [6]; immunoprecipitation", "value": "strong interaction"},
      {"measurement": "IP3-induced increase in mitochondrial Ca2+ levels", "setting": "[7]; overexpression in permeabilized neurons, compared to control (Vector)", "value": "significantly reduced the increase in mitochondrial Ca^2+ levels; also recorded: decreased"},
      {"measurement": "corticosterone-induced ROS generation", "setting": "[3]; DISC1 knockdown or overexpression in neurons", "value": "reduced ROS levels"}
    ]},
    {"molecule": "hDISC1: human DISC1 resistant to shRNA (protein, UniProt Q9NRI5 1-854, looked up, shRNA-resistant silent changes, human DISC1 resistant to shRNA) Disrupted in schizophrenia 1 …: MPGGGPQGAPAAAGGGGVSHRAGSRDCLPPAACFRRRRLARRPGYMRSSTGPGIGFLSPAVGTLFRFPGGVSGEESHHSESRARQCGLDSRGLLVRSPVSKSAAAPTVTSVRGTSAHFGIQLRGGTRLPDRLSWPCGPGSAGWQQEFAAMDSSETLDASWEAACSDGARRVRAAGSLPSAELSSNSCSPGCGPEVPPTPPGSHSAFTSSFSFIRLSLGSAGERGEAEGCPPSREAESHCQSPQEMGAKAASLDGPHEDPRCLSRPFSLLATRVSADLAQAARNSSRPERDMHSLPDMDPGSSSSLDPSLAGCGGDGSSGSGDAHSWDTLLRKWEPVLRDCLLRNRRQMEVISLRLKLQKLQEDAVENDDYDKAETLQQRLEDLEQEKISLHFQLPSRQPALSSFLGHLAAQVQAALRRGATQQASGDDTHTPLRMEPRLLEPTAQDSLHVSITRRDWLLQEKQQLQKEIEALQARMFVLEAKDQQLRREIEEQEQQLQWQGCDLTPLVGQLSLGQLQEVSKALQDTLASAGQIPFHAEPPETIRSLQERIKSLNLSLKEITTKVCMSEKFCSTLRKKVNDIETQLPALLEAKMHAISGNHFWTAKDLTEEIRSLTSEREGLEGLLSKLLVLSSRNVKKLGSVKEDYNRLRREVEHQETAYETSVKENTMKYMETLKNKLCSCKCPLLGKVWEADLEACRLLIQSLQLQEARGSLSVEDERQMDDLEGAAPPIPPRLHSEDKRKTPLKVLEEWKTHLIPSLHCAGGEQKEESYILSAELGEKCEDIGKKLLYLEDQLHTAIHSHDEDLIQSLRRELQMVKETLQAMILQLQPAKEAGEREAAASCMTAGVHEAQA", "values": [
      {"measurement": "IP3-dependent increase in mitochondrial Ca2+", "setting": "[7]; DISC1 expression inhibited, compared to control neurons (CTL shRNA)", "value": "restored similarly to the control"}
    ]}
  ]
}
